Laboratory results reported in PMC6526958 (Journal of medicinal chemistry, 2019).
“Also recorded” adds a separate entry of the source.

Columns and labels:
[1] = test system: CD73; experiment: CD73 enzyme inhibition assay, control for the triethylammonium salt form; format: biochemical; settings: 500 µM
[2] = molecular target: T1, recombinant soluble rat CD73 (Rattus norvegicus, UniProt P21588); experiment: radiometric CD73 assay with [2,8-3H]AMP, recombinant soluble rat CD73; format: biochemical; settings: for fold less active than AOPCP: rat CD73 Ki relative to AOPCP
T1 sequence (P21588 29-551 limits assumed): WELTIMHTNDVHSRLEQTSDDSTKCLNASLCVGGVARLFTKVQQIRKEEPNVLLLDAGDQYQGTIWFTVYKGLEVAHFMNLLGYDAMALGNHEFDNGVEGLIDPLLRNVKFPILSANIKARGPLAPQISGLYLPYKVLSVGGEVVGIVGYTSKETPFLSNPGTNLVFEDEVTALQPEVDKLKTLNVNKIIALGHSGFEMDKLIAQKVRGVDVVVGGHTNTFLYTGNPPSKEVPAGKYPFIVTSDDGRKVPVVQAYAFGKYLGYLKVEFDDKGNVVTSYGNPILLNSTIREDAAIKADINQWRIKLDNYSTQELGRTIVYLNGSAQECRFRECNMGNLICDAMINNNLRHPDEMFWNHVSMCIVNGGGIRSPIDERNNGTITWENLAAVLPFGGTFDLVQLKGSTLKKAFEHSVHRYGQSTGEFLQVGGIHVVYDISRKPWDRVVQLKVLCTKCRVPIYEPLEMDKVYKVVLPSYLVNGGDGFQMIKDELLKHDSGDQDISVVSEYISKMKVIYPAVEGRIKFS

[3] = molecular target: human P2Y6 receptor (Homo sapiens, UniProt Q15077); format: cell-based; settings: 9h up to 3.0 µM
[4] = molecular target: T2, eN/CD73 in human tonsils (Homo sapiens, UniProt P21589); experiment: in situ ecto-5′-nucleotidase; format: biochemical; settings: human tonsil cryosections
T2 sequence (P21589 27-574): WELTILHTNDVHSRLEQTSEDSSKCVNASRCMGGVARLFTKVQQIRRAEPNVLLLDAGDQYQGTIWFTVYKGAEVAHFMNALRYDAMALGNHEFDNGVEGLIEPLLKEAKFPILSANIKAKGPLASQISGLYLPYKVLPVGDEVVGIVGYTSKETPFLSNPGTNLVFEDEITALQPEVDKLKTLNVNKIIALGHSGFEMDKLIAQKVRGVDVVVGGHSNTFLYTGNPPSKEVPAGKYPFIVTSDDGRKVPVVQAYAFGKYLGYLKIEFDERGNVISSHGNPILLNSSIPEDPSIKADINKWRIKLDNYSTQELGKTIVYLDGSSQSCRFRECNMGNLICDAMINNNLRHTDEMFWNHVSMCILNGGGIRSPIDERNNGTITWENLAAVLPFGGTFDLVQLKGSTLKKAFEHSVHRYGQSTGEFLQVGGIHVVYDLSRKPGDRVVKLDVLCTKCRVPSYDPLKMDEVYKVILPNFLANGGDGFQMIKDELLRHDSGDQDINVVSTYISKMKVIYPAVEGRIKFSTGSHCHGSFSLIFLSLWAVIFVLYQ

[5] = molecular target: T3, human P2Y14 receptor (Homo sapiens, UniProt Q15391); experiment: fluorescent antagonist binding competition; settings: 9h up to 3.0 µM
T3 sequence (Q15391 1-338): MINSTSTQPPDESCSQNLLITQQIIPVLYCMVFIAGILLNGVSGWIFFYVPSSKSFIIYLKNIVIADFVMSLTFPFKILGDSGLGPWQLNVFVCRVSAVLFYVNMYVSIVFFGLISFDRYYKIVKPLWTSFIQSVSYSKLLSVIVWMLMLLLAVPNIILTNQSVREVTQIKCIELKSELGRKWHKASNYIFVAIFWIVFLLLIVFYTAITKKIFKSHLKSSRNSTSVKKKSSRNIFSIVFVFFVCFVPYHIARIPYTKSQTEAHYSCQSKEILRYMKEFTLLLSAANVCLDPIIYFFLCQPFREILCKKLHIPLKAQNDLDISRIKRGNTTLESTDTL

[6] = stability in aqueous solution; format: physicochemical; settings: room temperature
[7] = test system: recombinant soluble human CD73; experiment: radiometric CD73 assay with [2,8-3H]AMP, recombinant soluble human CD73; format: biochemical; settings: human versus rat CD73
[8] = molecular target: T4, recombinant soluble human CD73 (Homo sapiens, UniProt P21589); experiment: as above; format: biochemical
T4 sequence (P21589 28-549): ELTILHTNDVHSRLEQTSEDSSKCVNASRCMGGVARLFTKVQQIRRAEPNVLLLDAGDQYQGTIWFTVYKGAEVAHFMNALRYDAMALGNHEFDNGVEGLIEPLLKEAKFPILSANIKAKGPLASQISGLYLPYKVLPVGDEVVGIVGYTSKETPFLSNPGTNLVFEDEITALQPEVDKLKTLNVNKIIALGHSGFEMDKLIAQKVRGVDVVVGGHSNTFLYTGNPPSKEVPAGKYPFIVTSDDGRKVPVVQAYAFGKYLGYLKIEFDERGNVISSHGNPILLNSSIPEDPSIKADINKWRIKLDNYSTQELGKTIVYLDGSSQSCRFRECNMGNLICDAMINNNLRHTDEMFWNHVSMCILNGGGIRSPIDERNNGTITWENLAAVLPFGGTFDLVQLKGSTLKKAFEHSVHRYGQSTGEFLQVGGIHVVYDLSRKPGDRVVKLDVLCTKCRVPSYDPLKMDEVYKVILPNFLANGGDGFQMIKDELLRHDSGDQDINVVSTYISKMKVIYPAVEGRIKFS

[9] = molecular target: T5, membrane-bound CD73 (MDA-MB-231 membrane preparation) (Homo sapiens, UniProt P21589); experiment: radiometric CD73 assay, membrane preparations of MDA-MB-231 cells; format: biochemical
T5 sequence (P21589 27-574): T2 sequence (P21589 27-574)

human P2Y6 receptor, sequence (Q15077 whole entry): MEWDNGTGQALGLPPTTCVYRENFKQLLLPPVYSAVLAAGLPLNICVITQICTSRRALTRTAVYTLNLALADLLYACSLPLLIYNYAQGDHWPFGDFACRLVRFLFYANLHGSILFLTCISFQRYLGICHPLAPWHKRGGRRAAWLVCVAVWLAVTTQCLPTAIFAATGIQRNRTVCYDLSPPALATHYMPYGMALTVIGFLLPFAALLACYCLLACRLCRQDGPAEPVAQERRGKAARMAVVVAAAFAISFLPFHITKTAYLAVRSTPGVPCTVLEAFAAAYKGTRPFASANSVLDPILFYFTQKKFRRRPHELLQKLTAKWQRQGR

CCN(CC)CC.Cl [triethylammonium chloride]
reduction of CD73 enzymatic activity [1]: no reduction of enzymatic activity was detected

O=c1cc(O)ccn1[C@@H]1O[C@H](COP(=O)(O)CP(=O)(O)O)[C@@H](O)[C@H]1O [compound 10, 3-Deazauridine-5′-O-[(phosphonomethyl)phosphonic acid]]
CD73 inhibitory activity (in words) ([2]; rat CD73): inactive

Nc1ncnc2c1ccn2[C@@H]1O[C@H](COP(=O)(O)CP(=O)(O)O)[C@@H](O)[C@H]1O [2g, 7-Deazaadenosine-5′-O-[(phosphonomethyl)phosphonic acid]]
fold higher CD73 inhibitory activity compared to AOPCP ([2]; rat CD73): 2 fold

O=c1ccn([C@@]23C[C@H]2[C@H](COP(=O)(O)CP(=O)(O)O)[C@@H](O)[C@H]3O)c(=O)[nH]1 [compound 11, (S)-Methanocarbauridine-5′-O-[(phosphonomethyl)phosphonic acid]]
CD73 inhibitory activity (in words) ([2]; rat CD73): inactive

CCn1c(=O)ccn([C@@H]2O[C@H](COP(=O)(O)CP(=O)(O)O)[C@@H](O)[C@H]2O)c1=O [4c, 3-Ethyluridine-5′-O-[(phosphonomethyl)phosphonic acid]]
CD73 inhibitory activity (in words) ([2]; rat CD73): inactive

Nc1ncnc2c1ncn2[C@@H]1O[C@H](COP(=O)(O)O)[C@@H](O)[C@H]1O [AMP, adenosine 5′-monophosphate]
Km ([2]; read-out: Km, rat CD73, substrate AMP): 53 ± 4.1 µM

Cn1c(=O)n([C@@H]2O[C@H](COP(=O)(O)CP(=O)(O)O)[C@@H](O)[C@H]2O)cc/c1=N/OCc1ccccc1 [9h, N^4-[O-(4-Benzyloxy)]-3-methyl-cytidine-5′-O-[(phosphonomethyl)phosphonic acid]]
potency at P2Y6 receptor (in words) [3]: completely inactive | inhibition of CD73 catalytic (AMPase) activity in situ ([4]; 1, 10 and 100 nM, 100 µM AMP): inhibited catalytic activity of CD73 in a concentration-dependent manner, in situ more potently than AOPCP | reversibility of CD73 inhibition [4]: highly reversible CD73 inhibitor | potency at P2Y14 receptor (in words) [5]: completely inactive

O=c1ccn([C@@H]2O[C@H](COP(=O)(O)CCP(=O)(O)O)[C@@H](O)[C@H]2O)c(=O)[nH]1 [4w, Uridine-5′-O-[(phosphonoethyl)phosphonic acid]]
CD73 inhibitory activity (in words) ([2]; rat CD73): complete loss of CD73 inhibition

O=C(Nc1ccn([C@@H]2O[C@H](COP(=O)(O)CP(=O)(O)O)[C@@H](O)[C@H]2O)c(=O)n1)c1ccccc1 [7f, 4-Benzoylcytidine-5′-O-[(phosphonomethyl)phosphonic acid]]
potency at P2Y6 receptor (in words) [3]: potencies in the micromolar range | potency at P2Y14 receptor (in words) [5]: potencies in the micromolar range | stability in aqueous solution [6]: gradual decomposition when left at room temperature over several weeks in aqueous solution to UOPCP (4a) and COPCP (7a); also recorded: decomposition of compound 7f to UOPCP | fold more potent at human CD73 as compared to the rat enzyme [7]: 2 to 3 fold

Cc1cn([C@@H]2O[C@H](COP(=O)(O)CCP(=O)(O)O)[C@@H](O)[C@H]2O)c(=O)[nH]c1=O [4x, 5-Methyluridine-5′-O-[(phosphonoethyl)phosphonic acid]]
CD73 inhibitory activity (in words) ([2]; rat CD73): complete loss of CD73 inhibition

O=c1[nH]/c(=N/OCc2ccccc2)c(F)cn1[C@@H]1O[C@H](COP(=O)(O)CP(=O)(O)O)[C@@H](O)[C@H]1O [9g, N^4-[O-(4-Benzyloxy)]-5-fluoro-cytidine-5′-O-[(phosphonomethyl)phosphonic acid]]
fold more potent at human CD73 as compared to the rat enzyme [7]: 5 fold

O=c1ccn([C@@H]2O[C@H](COP(=O)(O)CP(=O)(O)O)[C@@H](O)[C@H]2O)c(=O)[nH]1 [4a, Uridine-5′-O-[(phosphonomethyl)phosphonic acid]]
fold less active than AOPCP [2]: 11 fold

O=c1ccn([C@@H]2O[C@H](COP(=O)(O)CP(=O)(O)O)[C@@H](O)[C@H]2O)c(=O)n1Cc1ccccc1 [4e, 3-Benzyluridine-5′-O-[(phosphonomethyl)phosphonic acid]]
CD73 inhibitory activity (in words) ([2]; rat CD73): inactive

Nc1ccnc2c1ncn2[C@@H]1O[C@H](COP(=O)(O)CP(=O)(O)O)[C@@H](O)[C@H]1O [2e, 1-Deazaadenosine-5′-O-[(phosphonomethyl)phosphonic acid]]
CD73 inhibitory activity (in words) ([2]; rat CD73): inactive

O=c1[nH]/c(=N/OCc2ccc3ccccc3c2)ccn1[C@@H]1O[C@H](COP(=O)(O)CP(=O)(O)O)[C@@H](O)[C@H]1O [9e, N^4-[O-(Naphthalen-2-ylmethoxy)]-cytidine-5′-O-[(phosphonomethyl)phosphonic acid]]
fold more potent at human CD73 as compared to the rat enzyme [7]: 2 to 3 fold

CCCn1c(=O)ccn([C@@H]2O[C@H](COP(=O)(O)CP(=O)(O)O)[C@@H](O)[C@H]2O)c1=O [4d, 3-Propyluridine-5′-O-[(phosphonomethyl)phosphonic acid]]
CD73 inhibitory activity (in words) ([2]; rat CD73): inactive

O=c1[nH]c(=O)n([C@@H]2O[C@H](COP(=O)(O)CP(=O)(O)O)[C@@H](O)[C@H]2O)cc1F [4l, 5-Fluorouridine-5′-O-[(phosphonomethyl)phosphonic acid]]
fold more potent at human CD73 as compared to the rat enzyme [7]: 2 to 3 fold

O=c1[nH]c(=NOCc2ccc(C(F)(F)F)cc2)ccn1[C@@H]1O[C@H](COP(=O)(O)CP(=O)(O)O)[C@@H](O)[C@H]1O [9d, N^4-[O-(4-Trifluoromethylbenzyloxy)]-cytidine-5′-O-[(phosphonomethyl)phosphonic acid]]
fold more potent at human CD73 as compared to the rat enzyme [7]: 2 to 3 fold | Ki [8]: 0.014 ± 0.0016 µM | Ki [2]: 0.0303 ± 0.0042 µM | Ki [9]: 0.0101 ± 0.0014 µM

O=c1ccn([C@@H]2O[C@H](COP(=O)(O)CP(=O)(O)O)[C@@H](O)[C@H]2O)c(=S)[nH]1 [4y, 2-Thiouridine-5′-O-[(phosphonomethyl)phosphonic acid]]
CD73 inhibitory activity (in words) ([2]; rat CD73): not tolerated

CCOP(=O)(O)OP(=O)(O)OC[C@H]1O[C@@H](n2ccc(=O)[nH]c2=S)[C@H](O)[C@@H]1O [compound 12]
CD73 inhibitory activity (in words) ([2]; rat CD73): inactive

Nc1nccc2c1ncn2[C@@H]1O[C@H](COP(=O)(O)CP(=O)(O)O)[C@@H](O)[C@H]1O [2f, 3-Deazaadenosine-5′-O-[(phosphonomethyl)phosphonic acid]]
CD73 inhibitory activity (in words) ([2]; rat CD73): inactive

Nc1ccn([C@@H]2O[C@H](COP(=O)(O)CP(=O)(O)O)[C@@H](O)[C@H]2O)c(=O)n1 [7a, Cytidine-5′-O-[(phosphonomethyl)phosphonic acid]]
fold less active than AOPCP [2]: 5 fold

CO[C@@H]1[C@H](O)[C@@H](COP(=O)(O)CP(=O)(O)O)O[C@H]1n1cc(C)c(=O)[nH]c1=O [4h, 2′-O-Methyl-5-methyluridine-5′-O-[(phosphonomethyl)phosphonic acid]]
CD73 inhibitory activity (in words) ([2]; rat CD73): inactive
